Molecular target: T1, Hup (histone-like DNA-binding protein of H. pylori) (Helicobacter pylori, UniProt O25506)
T1 sequence (O25506 1-94): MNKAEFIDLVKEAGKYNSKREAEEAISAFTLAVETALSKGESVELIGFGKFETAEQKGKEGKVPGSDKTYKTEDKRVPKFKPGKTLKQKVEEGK
Assay: ligand-observed 1H NMR titration

Work on O=C(O[C@@H]1Cc2c(O)cc(O)cc2O[C@@H]1c1cc(O)c(O)c(O)c1)c1cc(O)c(O)c(O)c1 [EGCG] yielded a Kd of 3.29 ± 0.42 µM.
